Results taken from patent US20100197650A1, “COMPOSITIONS AND METHODS OF TREATMENT COMPRISING CEFTAROLINE” (FOREST LABORATORIES HOLDINGS LTD., priority 2008, published 2010).
Values after ≈ are worked out from the molar mass of the structure shown. Where two headings read alike, the source gives them in different places.

Columns and labels:
Assay type in all cases: cell-based
[1] = system: ESBL-producing Klebsiella pneumoniae; experiment: Susceptibility testing MIC/MBC, broth microdilution (Example 2); conditions: for MBC / MIC: Klebsiella pneumoniae; for MBC: read-out: MBC; for MIC: read-out: MIC
Acinetobacter baumannii = experiment: MIC, broth microdilution (Example 1)
Outline: (§1)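 Broth microdilution per CLSI M7-A7; H. influenzae in Haemophilus Test Medium, streptococci in Mueller Hinton II Broth with 2% lysed horse blood, other organisms in Mueller Hinton II Broth. Two-fold serial dilutions; plates incubated 35° C ~20 hours, MIC read visually as growth/no-growth.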

Staphylococcus aureus = experiment: MIC, broth microdilution (Example 1)
Outline: as §1

Haemophilus influenzae = experiment: MIC, broth microdilution (Example 1)
Outline: (§2)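 Frozen clinical or ATCC isolates are subcultured overnight on agar at 35 °C. Agents are serially diluted 2-fold in DMSO, then added to broth at 5% volume: HTM for Haemophilus, MH II for the rest, plus 2% lysed horse blood for pneumococci. Plates are incubated ~20 h at 35 °C and read visually.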

Escherichia coli = experiment: MIC, broth microdilution (Example 1); conditions: Escherichia coli, read-out: MIC
Outline: as §1

Streptococcus pyogenes = experiment: MIC, broth microdilution (Example 1); conditions: Streptococcus pyogenes, read-out: MIC
Outline: as §1

Enterococcus faecalis = experiment: MIC, broth microdilution (Example 1)
Outline: as §1

Pseudomonas aeruginosa = experiment: MIC, broth microdilution (Example 1)
Outline: as §2

Streptococcus pneumoniae = experiment: MIC, broth microdilution (Example 1); conditions: Streptococcus pneumoniae, read-out: MIC
Outline: as §2

Klebsiella pneumoniae = experiment: MIC, broth microdilution (Example 1)
Outline: as §2

[2] = system: clinical Enterobacteriacae and P. aeruginosa isolates; experiment: Susceptibility testing (Example 2), summary over species; conditions: selected clinical isolates, except for 4 E. cloacae
[3] = K. pneumonia (10) clinical isolates

CCO/N=C(\C(=O)N[C@@H]1C(=O)N2C(C(=O)[O-])=C(Sc3nc(-c4cc[n+](C)cc4)cs3)CS[C@H]12)c1nsc(N)n1 [Ceftaroline]
MBC range [1, 3]: 32 to 1024 µg/mL | MIC range [1, 3]: 8 to 1024 µg/mL | MBC ([1]; K. pneumonia isolate no. 5427): 16 µg/mL (≈ 26.5 µM) | MIC ([1]; K. pneumonia isolate no. 5427): 4 µg/mL (≈ 6.61 µM) | MBC ([1]; K. pneumonia isolate no. 5436): 1020 µg/mL (≈ 1690 µM) | MIC ([1]; K. pneumonia isolate no. 5436): 1020 µg/mL (≈ 1690 µM) | MIC (Acinetobacter baumannii; A. baumannii 2602): 2 µg/mL | MIC (Acinetobacter baumannii; Acinetobacter baumannii, A. baumannii 2601, read-out: MIC): 2 µg/mL | MIC (Staphylococcus aureus; S. aureus 0765 (MRSA)): 2 µg/mL | MIC (Staphylococcus aureus; Staphylococcus aureus, MRSA, S. aureus 0765 (MRSA), read-out: MIC): 1 µg/mL | MIC (Staphylococcus aureus; Staphylococcus aureus, MRSA, S. aureus 2053 (MRSA), read-out: MIC): 2 µg/mL | MIC (Staphylococcus aureus; Staphylococcus aureus, MRSA, S. aureus 2202 (CA-MRSA), read-out: MIC): 1 µg/mL | MIC (Staphylococcus aureus; Staphylococcus aureus, MRSA, S. aureus 2296 (CA-MRSA), read-out: MIC): 1 µg/mL | MIC (Staphylococcus aureus; Staphylococcus aureus, MSSA, S. aureus 0753 (MSSA), read-out: MIC): 0.5 µg/mL | MIC (Staphylococcus aureus; Staphylococcus aureus, MSSA, S. aureus 2063 (MSSA), read-out: MIC): 0.5 µg/mL | MIC (Haemophilus influenzae; H. influenzae 1224): 0.12 µg/mL | MIC (Haemophilus influenzae; H. influenzae 2797 (BLNAR)): 0.12 µg/mL | MIC (Haemophilus influenzae; Haemophilus influenzae, H. influenzae 1224, read-out: MIC): 0.06 µg/mL | MIC (Haemophilus influenzae; Haemophilus influenzae, H. influenzae 2797 (BLNAR), read-out: MIC): 0.06 µg/mL | MIC (Haemophilus influenzae; Haemophilus influenzae, H. influenzae 2798 (BLNAR), read-out: MIC): 0.03 µg/mL | MIC (Haemophilus influenzae; Haemophilus influenzae, H. influenzae 2799 (BLNAR), read-out: MIC): 0.03 µg/mL | MIC (Escherichia coli; E. coli 1587): 0.12 µg/mL | MIC (Escherichia coli; E. coli 2273 (ESBL)): 2 µg/mL | MIC (Streptococcus pyogenes; S. pyogenes 0717): 0.008 µg/mL | MIC (Streptococcus pyogenes; S. pyogenes 0722): 0.008 µg/mL | MIC (Enterococcus faecalis; E. faecalis 0796 (VSE)): 4 µg/mL | MIC (Enterococcus faecalis; Enterococcus faecalis, E. faecalis 0795 (VSE), read-out: MIC): 8 µg/mL | MIC (Enterococcus faecalis; Enterococcus faecalis, E. faecalis 0796 (VSE), read-out: MIC): 2 µg/mL | MIC (Enterococcus faecalis; Enterococcus faecalis, VRE, E. faecalis 0847 (VRE), read-out: MIC): 2 µg/mL | MIC (Enterococcus faecalis; Enterococcus faecalis, VRE, E. faecalis 0849 (VRE), read-out: MIC): 4 µg/mL | MIC (Pseudomonas aeruginosa; P. aeruginosa 2555): 32 µg/mL | MIC (Pseudomonas aeruginosa; P. aeruginosa 2559): 16 µg/mL | MIC (Streptococcus pneumoniae; PRSP, S. pneumoniae 0876 (PRSP)): 0.12 µg/mL | MIC (Streptococcus pneumoniae; PRSP, S. pneumoniae 0877 (PRSP)): 0.12 µg/mL | MIC (Streptococcus pneumoniae; PRSP, S. pneumoniae 0880 (PRSP)): 0.12 µg/mL | MIC (Streptococcus pneumoniae; PRSP, S. pneumoniae 0884 (PRSP)): 0.12 µg/mL | MIC (Streptococcus pneumoniae; S. pneumoniae 0869 (PSSP)): 0.008 µg/mL | MIC (Klebsiella pneumoniae; K. pneumoniae 1461): 0.5 µg/mL | MIC (Klebsiella pneumoniae; Klebsiella pneumoniae, K. pneumoniae 1340, read-out: MIC): 0.12 µg/mL | MIC (Klebsiella pneumoniae; Klebsiella pneumoniae, K. pneumoniae 1461, read-out: MIC): 0.25 µg/mL | MIC (Klebsiella pneumoniae; Klebsiella pneumoniae, K. pneumoniae 1468 (ESBL), read-out: MIC): 32 µg/mL | MIC range [2]: 2 to 1024 µg/mL
